# US20120070421A1 (priority 2009, published 2012)
# Read-outs that look alike come from different tables or passages of the source.
# Columns and labels:
# Plasmopara viticola = test: Green house: fungicidal control of grape downy mildew, protective spray on grape cuttings; assay type: in vivo; conditions: single active, grape plants, sprayed 1 day before inoculation
# Description: The stock solution were prepared: a mixture of acetone and/or dimethylsulfoxide and the wetting agent/emulsifier Wettol, which is based on ethoxylated alkylphenoles, in a relation (volume) solvent-emulsifier of 99 to 1 was added to 25 mg of the compound to give a total of 10 ml. Water was then added to total volume of 100 ml. This stock solution was diluted with the described solvent-emulsifier-water mixture to the given concentration.
# The visually determined percentages of infected leaf areas are converted into efficacies in % of the untreated control.
# The efficacy (E) is calculated as follows using Abbot's formula: […]
# α corresponds to the fungicidal infection of the treated plants in % and β corresponds to the fungicidal infection of the untreated (control) plants in %
# An efficacy of 0 means that the infection level of the treated plants corresponds to that of the untreated control plants; an efficacy of 100 means that the treated plants were not infected.
# The expected efficacies of active compound combinations were determined using Colby's formula (Colby, S. R. “Calculating synergistic and antagonistic responses of herbicide combinations”, Weeds, 15, pp. 20-22, 1967) and compared with the observed efficacies.
# Colby's formula: E=x+y−x·y/100
# E expected efficacy, expressed in % of the untreated control, when using the mixture of the active compounds A and B at the concentrations a and b x efficacy, expressed in % of the untreated control, when using the active compound A at the concentration a y efficacy, expressed in % of the untreated control, when using the active compound B at the concentration b.
# Grape cuttings were grown in pots to the 4 to 5 leaf stage. These plants were sprayed to run-off with an aqueous suspension, containing the concentration of active ingredient or their mixture mentioned in the table below. The plants were allowed to air-dry. […] Then the extent of fungal attack on the lower leaf surface was visually assessed as % diseased leaf area.
# Pyricularia oryzae = assay type: cell-based; conditions: single active, 7 days after inoculation
# Phytophthora infestans = assay type: cell-based; conditions: 0.00025 ppm, single active, 7 days after inoculation
smiles,measurement,setting,value
Cn1cc(C(=O)Nc2ccccc2-c2cc(F)c(F)c(F)c2)c(C(F)F)n1,Observed efficacy,Plasmopara viticola; 0.016 ppm,0%
"Cc1cc(C(F)(F)F)nn1CC(=O)N1CCC(c2nc(C(=O)N(C)[C@@H]3CCCc4ccccc43)cs2)CC1 [2-{1-[2-(5-methyl-3-trifluoromethyl-pyrazol-1-yl)-acetyl]-piperid-4-yl}-thiazole-4-carboxylic acid methyl-(R)-1,2,3,4-tetrahydro-naphthalen-1-yl-amide]",Observed efficacy,Pyricularia oryzae; 0.063 ppm,1%
same,Observed efficacy,Pyricularia oryzae; 63 ppm,28%
same,Observed efficacy,Phytophthora infestans,0%
same,Observed efficacy,Plasmopara viticola; 0.063 ppm,67%
CCCCCCCCc1c(CC)nc2ncnn2c1N [drawing 4],Observed efficacy,Plasmopara viticola; 0.016 ppm,11%
"CCCCCCCCc1c(CC)nc2ncnn2c1N [drawing 13, reference compound]",Observed efficacy,Pyricularia oryzae; 4 ppm,10%
